Source: patent US7402591B2, “Analgesic compositions containing buprenorphine” (Reckitt Benckiser Healthcare (UK) Limited, priority 1999, dated 2008)

Tested on: thermal nociceptive threshold (hindpaw withdrawal latency) in rats with peripheral mononeuropathy
Experiment: Hargreaves paw withdrawal (plantar) test in rats with sciatic nerve ligation neuropathy
Format: in vivo, rat
Method: The operator positions the I.R. Generator directly beneath the hind paw of the rat and activates both the I.R. Source and a reaction time counter. When the rat feels pain and withdraws its paw, the I.R. Generator is automatically switched off and the timer stops, determining the withdrawal latency.
The testing was carried out on the eighth day following the operative procedure.
In order to determine a baseline for comparison purposes, rats were subjected to the Hargreaves paw withdrawal test before the subcutaneous injection of the various drugs or drug combinations being tested. The rats were then injected subcutaneously with the particular drug or drug combination being tested and the percentage change in time for the rat to withdraw its paw from the thermal stimulation, in comparison with the baseline, was recorded as a percentage in paw withdrawal latency. […]
After 8 days, thermal nociceptive threshold, as determined by hindpaw withdrawal latency, was measured using a plantar test (Ugo Basile, Comero, Italy). […] This initiated a timing circuit which measured the time interval between the application of the light beam and the withdrawal of the hind paw. […]
Paw withdrawal latency was determined before injection and at different times after injection. […]

C=CCN1CC[C@]23c4c5ccc(O)c4O[C@H]2C(=O)CC[C@@]3(O)[C@H]1C5 [naloxone, 1-N-allyl-14-hydroxynorhydromorphinone]
potentiation of sub-clinical doses of buprenorphine (Example 1, FIG. 1, low dose naloxone, weight ratios 20:1 and 15:1, subcutaneous, rats n=3): can be clearly seen
potentiation of the sub-clinical doses of buprenorphine (Example 2, FIG. 2, buprenorphine 2.5 μg/kg co-administered subcutaneously at weight ratios 5:1 to 30:1, rats n=6): can be clearly seen
